Measured values published in a compilation of properties of binary mixtures (doi:10.1016/j.jct.2012.02.027).

Test: xn = mol fraction of the nth substance listed
Conditions: 101 kPa

CC(=O)[O-].CC[n+]1ccn(C)c1 + O
viscosity [mPa·s]
Conditions	298.15 K	313.15 K	328.15 K	343.15 K
x2 = 0	–	57.7	30.3	18.1
x2 = 0.0992	–	49.5	–	16.46
x2 = 0.222	89.2	42.3	23.49	–
x2 = 0.3233	73	36	20.48	13.21
x2 = 0.4207	–	30.2	–	11.11
x2 = 0.5408	–	–	13.85	–
x2 = 0.6135	–	19.09	11.44	7.48
x2 = 0.6805	28.8	15.63	–	–
x2 = 0.7482	21.9	11.99	7.32	4.87
x2 = 0.8134	15.44	8.51	–	3.57
x2 = 0.9067	6.16	3.74	2.54	1.81

CC[n+]1ccn(C)c1.N#C[N-]C#N + CCO
viscosity [mPa·s]
Conditions	298.15 K	313.15 K	328.15 K	343.15 K
x2 = 0	14.9	–	–	5.48
x2 = 0.102	12.69	8.69	6.32	4.85
x2 = 0.1981	10.8	7.53	5.5	–
x2 = 0.279	9.27	6.58	4.86	3.81
x2 = 0.3596	7.85	–	–	3.37
x2 = 0.4741	6.04	4.45	3.47	2.76
x2 = 0.6028	–	3.31	2.59	2.13
x2 = 0.6867	3.47	2.65	2.09	1.7
x2 = 0.7678	–	2.1	1.67	1.37
x2 = 0.8503	2.08	1.63	1.3	1.1
x2 = 0.9327	1.53	1.19	0.93	0.75
